Data from patent US7105470B1, “Herbicidal compositions for tolerant or resistant soybean crops” (Hoechst Schering AgrEvo GmbH, priority 1998, dated 2006).
Structures can show the parent of a compound that is named as a salt.

Columns and labels:
Assay type in all cases: in vivo
[1] = test system: Soja LL (glufosinate-tolerant soybean culture); experiment: Field trial with soybeans, tolerance by crop plants
Method: (§1) Transgenic soybean plants with a resistance to one or more herbicides (A) together with typical weed plants were grown in the open on 2×5 m plots under natural field conditions; alternatively, weed infestation occurred naturally when the soybean plants were grown.
(§2) 2, 4, 6 and 8 weeks after the application, the herbicidal activity of the active substances or active substance mixtures was scored visually with reference to the treated plots in comparison to untreated control plots. The damage to, and the development of, all aerial parts of the plants was recorded. Scoring was done on the basis of a percentage sale (100% action all plants destroyed; 50% action=50% of the plants and green parts of the plants destroyed; 0% action=no recognizable effect=like control plot. The mean of the score values of in each case 4 plots was calculated.

[2] = test system: Eleusine indica; experiment: Field trial with soybeans, herbicidal action; details: 3-leaf stage, scoring 42 days after application
Method: as §1, §2

[3] = test system: Portulaca oleracea; experiment: Field trial with soybeans, herbicidal action; details: 8–10 leaf stage, scoring 32 days after application
Method: as §1
(§3) […] The damage to, and the development of, all aerial parts of the plants was recorded. Scoring was done on the basis of a percentage sale (100% action all plants destroyed; 50% action=50% of the plants and green parts of the plants destroyed; 0% action=no recognizable effect=like control plot. The mean of the score values of in each case 4 plots was calculated.

[4] = test system: Sorghum sudaneus; experiment: Field trial with soybeans, herbicidal action; details: 4-leaf stage, scoring 28 days after application
Method: as §1, §2

[5] = test system: Xanthium orientalis; experiment: Field trial with soybeans, herbicidal action; details: 5-leaf stage, scoring 28 days after application
Method: as §1, §2

[6] = test system: Sida rombifolia; experiment: Field trial with soybeans, herbicidal action; details: 4-leaf stage, scoring 43 days after application
[7] = test system: Abutilon theophrasti; experiment: Field trial with soybeans, herbicidal action; details: 4-leaf stage, scoring 42 days after application
Method: as §1, §2

[8] = test system: Digitalis abscendens; experiment: Field trial with soybeans, herbicidal action; details: application middle-end of stocking, scoring 3 weeks after application
Method: as §1, §3

[9] = test system: Equisetum arvense; experiment: Field trial with soybeans, herbicidal action; details: 4–6 leaf stage, scoring 3 weeks after application
Method: as §1, §3

[10] = test system: Pharbitis purpureum; experiment: Field trial with soybeans, herbicidal action; details: 3-leaf stage, scoring 42 days after application
Method: as §1, §2

[11] = Table 8, 50 g of a.s./ha, 4-leaf stage, scoring 43 days after application

## COc1cc(Cl)nc(NC(=O)NS(=O)(=O)c2ccccc2C(=O)O)n1 [(B2.11), chlorimuron]
[1]; Table 6, 12.5 g of a.s./ha, 3-leaf stage, scoring 42 days after application
  Herbicidal action (%) against Soja LL: 0%
[2]; 12.5 g of a.s./ha
  Herbicidal action (%) against Eleusine indica: 5%

## COC(=O)c1sccc1S(=O)(=O)NC(=O)Nc1nc(C)nc(OC)n1 [(B2.3), thifensulfuron-methyl]
[3]; 5 g of a.s./ha
  Herbicidal action (%) against Portulaca oleracea: 45%
[1]; in vivo
  Herbicidal action (%) against Soja LL: 3%
[4]; 15 g of a.s./ha
  Herbicidal action (%) against Sorghum sudaneus: 13%

## CCCN(CCC)c1c([N+](=O)[O-])cc(C(F)(F)F)cc1[N+](=O)[O-] [(B1.1), trifluralin]
[5]; 960 g of a.s./ha
  Herbicidal action (%) against Xanthium orientalis: 0%

## CCCCCOC(=O)COc1cc(N2C(=O)C3=C(CCCC3)C2=O)c(F)cc1Cl [(B2.7), flumiclorac-pentyl]
[1]; [11]
  Herbicidal action (%) against Soja LL: 0%
[6]; 50 g of a.s./ha
  Herbicidal action (%) against Sida rombifolia: 40%

## Cc1ccn2nc(S(=O)(=O)Nc3c(F)cccc3F)nc2n1 [(B1.6), flumetsulam]
[7]; 35 g of a.s./ha
  Herbicidal action (%) against Abutilon theophrasti: 52%

## CCc1cccc(CC)c1N(COC)C(=O)CCl [(B1.8), alachlor]
[8]; 2580 g of a.s./ha
  Herbicidal action (%) against Digitalis abscendens: 48%

## Cc1cc(C)nc(NC(=O)NS(=O)(=O)c2ccccc2C(=O)OC2COC2)n1 [(B2.15), oxasulfuron]
[1]; [11]
  Herbicidal action (%) against Soja LL: 0%
[6]; 50 g of a.s./ha
  Herbicidal action (%) against Sida rombifolia: 60%

## CCc1cccc(C)c1N(C(=O)CCl)C(C)COC (centres unmarked) [(B1.5), metolachlor]
[3]; 2240 g of a.s./ha
  Herbicidal action (%) against Portulaca oleracea: 30%
[1]; Table 5, 2240 g of a.s./ha, 8–10 leaf stage, scoring 32 days after application
  Herbicidal action (%) against Soja LL: 0%

## CCOC(=O)[C@@H](C)Oc1ccc(Oc2nc3ccc(Cl)cc3o2)cc1 [(B4.2), fenoxaprop-P-ethyl]
[1]; Table 6, 25 g of a.s./ha, 3-leaf stage, scoring 42 days after application
  Herbicidal action (%) against Soja LL: 0%
[1]; Table 6, 50 g of a.s./ha, 3-leaf stage, scoring 42 days after application
  Herbicidal action (%) against Soja LL: 0%
[2]; 25 g of a.s./ha
  Herbicidal action (%) against Eleusine indica: 30%
[2]; 50 g of a.s./ha
  Herbicidal action (%) against Eleusine indica: 70%

## CP(=O)(O)CCC(N)C(=O)O (centres unmarked) [(A1.2), glufosinate-monoammonium salt]
[3]; 250 g of a.s./ha
  Herbicidal action (%) against Portulaca oleracea: 20%
[3]; 500 g of a.s./ha
  Herbicidal action (%) against Portulaca oleracea: 65%
[8]; 1200 g of a.s./ha
  Herbicidal action (%) against Digitalis abscendens: 36%
[9]; 400 g of a.s./ha
  Herbicidal action (%) against Equisetum arvense: 70%
[1]; Table 5, 250 g of a.s./ha, 8–10 leaf stage, scoring 32 days after application
  Herbicidal action (%) against Soja LL: 0%
[1]; Table 5, 500 g of a.s./ha, 8–10 leaf stage, scoring 32 days after application
  Herbicidal action (%) against Soja LL: 0%
[1]; Table 6, 200 g of a.s./ha, 3-leaf stage, scoring 42 days after application
  Herbicidal action (%) against Soja LL: 0%
[1]; Table 6, 500 g of a.s./ha, 3-leaf stage, scoring 42 days after application
  Herbicidal action (%) against Soja LL: 0%
[1]; Table 7, 200 g of a.s./ha, 3-leaf stage, scoring 42 days after application
  Herbicidal action (%) against Soja LL: 0%
[1]; Table 7, 400 g of a.s./ha, 3-leaf stage, scoring 42 days after application
  Herbicidal action (%) against Soja LL: 0%
[1]; Table 8, 150 g of a.s./ha, 4-leaf stage, scoring 43 days after application
  Herbicidal action (%) against Soja LL: 0%
[1]; Table 8, 300 g of a.s./ha, 4-leaf stage, scoring 43 days after application
  Herbicidal action (%) against Soja LL: 0%
[6]; 150 g of a.s./ha
  Herbicidal action (%) against Sida rombifolia: 25%
[6]; 300 g of a.s./ha
  Herbicidal action (%) against Sida rombifolia: 65%
[10]; 200 g of a.s./ha
  Herbicidal action (%) against Pharbitis purpureum: 35%
[10]; 400 g of a.s./ha
  Herbicidal action (%) against Pharbitis purpureum: 72%
[2]; 200 g of a.s./ha
  Herbicidal action (%) against Eleusine indica: 40%
[2]; 500 g of a.s./ha
  Herbicidal action (%) against Eleusine indica: 80%
[7]; 330 g of a.s./ha
  Herbicidal action (%) against Abutilon theophrasti: 45%
[7]; 500 g of a.s./ha
  Herbicidal action (%) against Abutilon theophrasti: 95%
[5]; 300 g of a.s./ha
  Herbicidal action (%) against Xanthium orientalis: 96%
[5]; 500 g of a.s./ha
  Herbicidal action (%) against Xanthium orientalis: 98%
[4]; 300 g of a.s./ha
  Herbicidal action (%) against Sorghum sudaneus: 15%
[4]; 500 g of a.s./ha
  Herbicidal action (%) against Sorghum sudaneus: 65%

## CON(C)C(=O)Nc1ccc(Cl)c(Cl)c1 [(B1.9), linuron]
[4]; 750 g of a.s./ha
  Herbicidal action (%) against Sorghum sudaneus: 15%

## CCOc1nc(F)cc2nc(S(=O)(=O)Nc3c(Cl)cccc3C(=O)OC)nn12 [(B2.12), cloransulam-methyl]
[3]; 18 g of a.s./ha
  Herbicidal action (%) against Portulaca oleracea: 73%
[1]; Table 5, 18 g of a.s./ha, 8–10 leaf stage, scoring 32 days after application
  Herbicidal action (%) against Soja LL: 2%
[1]; Table 7, 40 g of a.s./ha, 3-leaf stage, scoring 42 days after application
  Herbicidal action (%) against Soja LL: 0%
[10]; 40 g of a.s./ha
  Herbicidal action (%) against Pharbitis purpureum: 45%

## O=C(O)c1cc(Oc2ccc(C(F)(F)F)cc2Cl)ccc1[N+](=O)[O-] [(B2.8), acifluorfen]
[4]; 360 g of a.s./ha
  Herbicidal action (%) against Sorghum sudaneus: 15%

## C#CCN1C(=O)COc2cc(F)c(N3C(=O)C4=C(CCCC4)C3=O)cc21 [(B1.15), flumioxazin]
[3]; 100 g of a.s./ha
  Herbicidal action (%) against Portulaca oleracea: 65%
[1]; Table 5, 100 g of a.s./ha, 8–10 leaf stage, scoring 32 days after application
  Herbicidal action (%) against Soja LL: 0%
[1]; Table 7, 12.5 g of a.s./ha, 3-leaf stage, scoring 42 days after application
  Herbicidal action (%) against Soja LL: 0%
[10]; 12.5 g of a.s./ha
  Herbicidal action (%) against Pharbitis purpureum: 30%

## CC(C)N1C(=O)c2ccccc2NS1(=O)=O [(B2.2), bentazone]
[1]; Table 7, 480 g of a.s./ha, 3-leaf stage, scoring 42 days after application
  Herbicidal action (%) against Soja LL: 0%
[10]; 480 g of a.s./ha
  Herbicidal action (%) against Pharbitis purpureum: 35%

## COCC(C)N(C(=O)CCl)c1c(C)csc1C (centres unmarked) [(B1.7), dimethenamid]
[7]; 1500 g of a.s./ha
  Herbicidal action (%) against Abutilon theophrasti: 30%

## CCc1cnc(C2=NC(C)(C(C)C)C(=O)N2)c(C(=O)O)c1 (centres unmarked) [(A3.2), imazethapyr]
[1]; in vivo
  Herbicidal action (%) against Soja LL: 0%
[2]; 50 g of a.s./ha
  Herbicidal action (%) against Eleusine indica: 27%

## CCOC(=O)C(C)OC(=O)c1cc(Oc2ccc(C(F)(F)F)cc2Cl)ccc1[N+](=O)[O-] (centres unmarked) [(B2.5), lactofen]
[9]; 150 g of a.s./ha
  Herbicidal action (%) against Equisetum arvense: 0%
[9]; 300 g of a.s./ha
  Herbicidal action (%) against Equisetum arvense: 0%
[7]; 2240 g of a.s./ha
  Herbicidal action (%) against Abutilon theophrasti: 20%

## COCc1cnc(C2=NC(C)(C(C)C)C(=O)N2)c(C(=O)O)c1 (centres unmarked) [(A3.5), imazamox]
[1]; Table 7, 30 g of a.s./ha, 3-leaf stage, scoring 42 days after application
  Herbicidal action (%) against Soja LL: 0%
[10]; 30 g of a.s./ha
  Herbicidal action (%) against Pharbitis purpureum: 40%
